Assay results: patent publication US7384629B2, “Biological control of nematodes with Hirsutella minnesotensis” (Regents of the University of Minnesota, priority 2000, dated 2008)

Test system: Hirsutella rhossiliensis
Test: Effect of carbon source on growth, sporulation and spore germination
Settings: for Growth mm-in-diam, on agar: carbon source 4 g/liter carbon; for Growth mm-in-diam, on agar / Sporulation 10^3/cm^2, on agar / growth in liquid culture (visual rating): 5 weeks; for Sporulation 10^3/cm^2, on agar / growth in liquid culture (visual rating) / Spore germination %, on agar: carbon source; for Spore germination %, on agar: after incubation for 24 hr

| Compound | Growth mm-in-diam, on agar (isolate ATCC46487) [mm-in-diam] | Growth mm-in-diam, on agar (isolate JA16-1) [mm-in-diam] | Growth mm-in-diam, on agar (isolate OWVT-1) [mm-in-diam] | Sporulation 10^3/cm^2, on agar (isolate ATCC46487) | growth in liquid culture (visual rating) (isolate ATCC46487) | Spore germination %, on agar (isolate ATCC46487) [%] | Sporulation 10^3/cm^2, on agar (isolate JA16-1) | Spore germination %, on agar (isolate JA16-1) [%] | Sporulation 10^3/cm^2, on agar (isolate OWVT-1) | growth in liquid culture (visual rating) (isolate OWVT-1) | Spore germination %, on agar (isolate OWVT-1) [%] | growth in liquid culture (visual rating) (isolate JA16-1) |
| --- | --- | --- | --- | --- | --- | --- | --- | --- | --- | --- | --- | --- |
| O=C[C@H](O)[C@@H](O)[C@H](O)[C@H](O)CO [D-(+)-glucose] | 28.3 | 6.5 | 8.0 | 7.7 10^3/cm^2 | I | 61.1 | 28.1 10^3/cm^2 | 65.5 | 30.7 10^3/cm^2 | I | 56.7 | – |
| O=C[C@@H](O)[C@H](O)[C@H](O)CO [D-(−)-arabinose] | 18.0 | 0.0 | 9.7 | 22.3 10^3/cm^2 | – | 48.9 | 27.0 10^3/cm^2 | 32.2 | 35.2 10^3/cm^2 | – | 40.0 | – |
| OC[C@@H](O)[C@@H](O)[C@H](O)[C@H](O)CO [D-mannitol] | 29.5 | 18.0 | 23.2 | 15.9 10^3/cm^2 | III (III = hyphae growth or colonies form a pellet, less than 2.5 ml) | 58.9 | 17.3 10^3/cm^2 | 61.1 | 40.6 10^3/cm^2 | – | 60.0 | I |
| OC[C@@H](O)[C@@H](O)[C@H](O)[C@@H](O)CO [D-sorbitol] | 30.3 | 18.3 | 11.7 | 64.7 10^3/cm^2 | III (III = hyphae growth or colonies form a pellet, less than 2.5 ml) | 57.8 | 4.2 10^3/cm^2 | 67.8 | 126.0 10^3/cm^2 | – | 56.7 | I |
| O=C(CO)[C@@H](O)[C@H](O)[C@@H](O)CO [L-(−)-sorbose] | 7.8 | 0.0 | 6.7 | 62.5 10^3/cm^2 | I | 35.6 | 0.0 10^3/cm^2 | 13.3 | 7.4 10^3/cm^2 | I | 26.7 | – |
| OC[C@H]1O[C@H](O[C@H]2[C@H](O)[C@@H](O)[C@H](O)O[C@@H]2CO)[C@H](O)[C@@H](O)[C@@H]1O [Maltose monohydrate] | 34.3 | 11.0 | 13.7 | 21.9 10^3/cm^2 | I | 36.7 | 26.6 10^3/cm^2 | 64.5 | 34.2 10^3/cm^2 | I | 46.7 | I |
